Measured values: patent US20190240225A1, “COMBINATION OF A BCL-2 INHIBITOR AND A MCL-1 INHIBITOR, USES AND PHARMACEUTICAL COMPOSITIONS THEREOF” (LES LABORATOIRES SERVIER, priority 2016, published 2019)
Where two headings read alike, the source gives them in different places.

Tests used:
Format in all cases: cell-based
SU-DHL-8 = test: CellTiterGlo viability, DLBCL cell line; details: single agent, 2 days; for IC50: read-out: Abs IC50
Experimental: (§3) In addition, all media contained penicillin (100 IU/ml), streptomycin (100 μg/ml) and L-glutamine (2 mM). Unless otherwise mentioned, culture media and supplements were from Amimed/Bioconcept (Allschwil, Switzerland).
(§4) Cell lines were cultured at 37° C. in a humidified atmosphere containing 5% CO2 and expanded in T-75 flasks. In all cases cells were thawed from frozen stocks, expanded through ≥1 passage using appropriate dilutions, counted and assessed for viability using a CASY cell counter (Omni Life Science, Bremen, Germany) prior to plating 25 ul/well at the densities indicated in Table 1 into 384-well plates (Corning). All cell lines were determined to be free of mycoplasma contamination by PCR assay performed at Idexx Radii (Columbia, Mo., USA) and misidentification ruled out by assessment of a panel of 48 Small Nucleotide Polymorphisms (SNPs) at Asuragen (Austin, Tex., USA) or in-house.
(§5) Stock solutions of compounds were prepared at a concentration of 10 mM in DMSO (Sigma) and stored at −20° C. Where necessary to afford a full dose-response curve, the stock solutions were pre-diluted in DMSO to 1′000-fold the desired start concentration (see Table 2). On the day after cell seeding, eight 2.5-fold serial dilutions of each compound were dispensed, either individually or in all possible permutations in a checkerboard fashion, directly into the cell assay plates using a non-contact 300D Digital Dispenser (ILCAN, Mannedorf, Switzerland) as outlined in FIG. 4. The final concentration of DMSO was 0.2% in all wells.
(§6) Effects of the single agents as well as their checkerboard combinations on cell viability were assessed after 2 days of incubation at 37° C./5% CO2 by quantification of cellular ATP levels using CellTiterGlo (Promega, Madison, Wis., USA) at 25 μL reagent/well and n=2 replicate plates per condition. Luminescence was quantified on a M1000 multipurpose platereader (ILCAN, Mannedorf, Switzerland). The number/viability of cells at time of compound addition was likewise assessed and used to assess the degree of the population doubling time of a particular cell line.
(§7) Single agent IC50s were calculated using standard four-parametric curve fitting. […] IC50 are defined as the compound concentration at which the CTG signal is reduced to 50% of that measured for the vehicle (DMSO) control.

SU-DHL-5 = test: CellTiterGlo viability, DLBCL cell line; details: single agent, 2 days; for IC50: read-out: Abs IC50
Experimental: as §3, §4, §5, §6, §7

Toledo = test: CellTiterGlo viability, DLBCL cell line; details: for IC50 / Max Inh: Toledo, single agent, 2 days; for IC50: read-out: Abs IC50
Experimental: as §3, §4, §5, §6
Single agent IC50s were calculated using standard four-parametric curve fitting. […] All calculations were performed using the Combination Analysis Module in-house software. IC50 are defined as the compound concentration at which the CTG signal is reduced to 50% of that measured for the vehicle (DMSO) control.

NB1 = test: CellTiterGlo viability, neuroblastoma cell line; details: single agent, 2 days
Experimental: (§1) In addition, all media contained penicillin (100 IU/ml), streptomycin (100 μg/ml) and L-glutamine (2 mM). […] In all cases cells were thawed from frozen stocks, expanded through ≥1 passage using appropriate dilutions, counted and assessed for viability using a CASY cell counter prior to plating 150 ul/well at the densities indicated in Table 6 into 96-well plates. All cell lines were determined to be free of mycoplasma contamination in-house. Stock solutions of compounds were prepared at a concentration of 5 mM in DMSO and stored at −20° C. In order to analyse the activity of the compounds as single agents, cells were seeded and treated with nine 3.16-fold serial dilutions of each compound dispensed individually directly into the cell assay plates. […] Two independent experiments, each one performed in duplicates were performed. […]. Luminescence was quantified on a multipurpose platereader. Single agent IC50s were calculated using standard four-parametric curve fitting. […] Identical experiments were performed to assess potential synergistic interactions between compound combinations. […] All calculations were performed using Chalice TM Bioinformatics Software.

SH-SY5Y = test: CellTiterGlo viability, neuroblastoma cell line; details: single agent, 2 days
Experimental: as §1

SK-N-BE = test: CellTiterGlo viability, neuroblastoma cell line; details: single agent, 3 days
Experimental: as §1

NBL-S = test: CellTiterGlo viability, neuroblastoma cell line; details: single agent, 3 days
Experimental: as §1

SK-N-SH = test: CellTiterGlo viability, neuroblastoma cell line; details: single agent, 2 days
Experimental: as §1

SIMA = test: CellTiterGlo viability, neuroblastoma cell line; details: single agent, 3 days
Experimental: as §1

SK-N-FI = test: CellTiterGlo viability, neuroblastoma cell line; details: single agent, 2 days
Experimental: as §1

Kelly = test: CellTiterGlo viability, neuroblastoma cell line; details: single agent, 2 days
Experimental: as §1

SK-N-DZ = test: CellTiterGlo viability, neuroblastoma cell line; details: single agent, 3 days
Experimental: as §1

SK-N-AS = test: CellTiterGlo viability, neuroblastoma cell line; details: single agent, 3 days
Experimental: as §1

LAN-6 = test: CellTiterGlo viability, neuroblastoma cell line; details: for Max Inh (Compound 3: Mean of Max Inh) / IC50: LAN-6, single agent, 3 days
Experimental: as §1

REC-1 = test: CellTiterGlo viability, Mantle Cell Lymphoma cell line; details: single agent, 2 days
Experimental: (§2) In addition, all media contained penicillin (100 IU/ml), streptomycin (100 μg/ml) and L-glutamine (2 mM). […] All cell lines were determined to be free of mycoplasma contamination in-house. Stock solutions of compounds were prepared at a concentration of 5 mM in DMSO and stored at −20° C. In order to analyse the activity of the compounds as single agents or in combination, cells were seeded and treated with seven or eight 3.16-fold serial dilutions of each compound dispensed, either individually or in all possible permutations in a checkerboard fashion, directly into the cell assay plates. […] All the conditions were tested in triplicates. Luminescence was quantified on a multipurpose plate reader. […] All calculations were performed using Chalice™ Bioinformatics Software available in Horizon website. Single agent IC50s were calculated using standard four-parametric curve fitting.

JVM-2 = test: as above; details: single agent, 2 days
Experimental: as §2

Z-138 = test: as above; details: single agent, 2 days
Experimental: as §2

Jeko = test: as above; details: single agent, 2 days
Experimental: as §2

Mino = test: as above; details: single agent, 2 days
Experimental: as §2

Cl.O=C(c1cc(-c2cc3c(cc2C(=O)N2Cc4ccccc4C[C@H]2CN2CCOCC2)OCO3)n2c1CCCC2)N(c1ccccc1)c1ccc(O)cc1 [Compound 1, HCl, N-(4-hydroxyphenyl)-3-{6-[((3S)-3-(4-morpholinylmethyl)-3,4-dihydro-2(1H)-isoquinolinyl)carbonyl]-1,3-benzodioxol-5-yl}-N-phenyl-5,6,7,8-tetrahydro-1-indolizine carboxamide hydrochloride]
IC50 (SU-DHL-8; Homo sapiens, 48 h): ≥ 10000 nM
Max Inh (SU-DHL-8): 28.7%
IC50 (SU-DHL-5; Homo sapiens, 48 h): ≥ 10000 nM
Max Inh (SU-DHL-5): 49.6%
IC50 (Toledo; Homo sapiens, 48 h): 137 nM
Max Inh (Toledo): 101.9%
IC50 (NB1; Homo sapiens, 48 h): > 3000 nM
Max Inh (Compound 3: Mean of Max Inh) (NB1): 11%
IC50 (SH-SY5Y; Homo sapiens, 48 h): > 3000 nM
Max Inh (Compound 3: Mean of Max Inh) (SH-SY5Y): 10%
IC50 (SK-N-BE; Neuroblastoma cell, 72 h): > 2000 nM
Max Inh (Compound 3: Mean of Max Inh) (SK-N-BE): 27%
IC50 (NBL-S; Neuroblastoma cell, 72 h): > 2000 nM
Max Inh (Compound 3: Mean of Max Inh) (NBL-S): 10%
IC50 (SK-N-SH; Homo sapiens, 48 h): > 3000 nM
Max Inh (Compound 3: Mean of Max Inh) (SK-N-SH): 15%
IC50 (SIMA; Neuroblastoma cell, 72 h): > 2000 nM
Max Inh (Compound 3: Mean of Max Inh) (SIMA): 48.5%
IC50 (SK-N-FI; Homo sapiens, 48 h): > 3000 nM
Max Inh (Compound 3: Mean of Max Inh) (SK-N-FI): 6%
IC50 (Kelly; 48 h): > 3000 nM
Max Inh (Compound 3: Mean of Max Inh) (Kelly): 27%
IC50 (SK-N-DZ; Homo sapiens, 72 h): > 2000 nM
Max Inh (Compound 3: Mean of Max Inh) (SK-N-DZ): 10%
IC50 (SK-N-AS; Homo sapiens, 72 h): > 1000 nM
Max Inh (Compound 3: Mean of Max Inh) (SK-N-AS): 9%
Max Inh (Compound 3: Mean of Max Inh) (LAN-6): 26%
IC50 (LAN-6; Neuroblastoma cell, 72 h): > 2000 nM
inhibition at 0.63 µM (LAN-6; Neuroblastoma cell, LAN-6 cells, each compound at 630 nM (FIG. 10, upper left panel), read-out: growth inhibition): 0%
IC50 (REC-1; Homo sapiens, Rec1, 48 h): 703 nM
Max Inh (REC-1): 78.0%
IC50 (JVM-2; Homo sapiens, 48 h): > 5000 nM
Max Inh (JVM-2): 38.0%
IC50 (Z-138; Homo sapiens, 48 h): > 5000 nM
Max Inh (Z-138): 25.0%
IC50 (Jeko; 48 h): > 5000 nM
Max Inh (Jeko): 35.0%
IC50 (Mino; Homo sapiens, 48 h): 91 nM
Max Inh (Mino): 91.0%

COc1ccccc1-c1nccc(COc2ccccc2C[C@@H](Oc2ncnc3sc(-c4ccc(F)cc4)c(-c4ccc(OCCN5CCN(C)CC5)c(Cl)c4C)c23)C(=O)O)n1 [Compound 3, (2R)-2-{[(5Sa)-5-{3-chloro-2-methyl-4-[2-(4-methylpiperazin-1-yl)ethoxy]phenyl}-6-(4-fluorophenyl)thieno[2,3-d]pyrimidin-4-yl]oxy}-3-(2-{[2-(2-methoxyphenyl)pyrimidin-4-yl]methoxy}phenyl)propanoic acid]
Max Inh (SU-DHL-8): 95.6%
IC50 (SU-DHL-8): 305 nM
Max Inh (SU-DHL-5): 98.2%
IC50 (SU-DHL-5): 0.94 nM
growth inhibition (Toledo; Toledo cells, Compound 3 at the highest concentration tested, combination with the second lowest concentration of Compound 1 (FIG. 4B)): 46%
Max Inh (Toledo): 45.8%
IC50 (Toledo): ≥ 1000 nM
IC50 (NB1): 123 nM
Max Inh (Compound 3: Mean of Max Inh) (NB1): 99%
IC50 (SH-SY5Y): > 3000 nM
Max Inh (Compound 3: Mean of Max Inh) (SH-SY5Y): 24%
IC50 (SK-N-BE): > 2000 nM
Max Inh (Compound 3: Mean of Max Inh) (SK-N-BE): 27%
IC50 (NBL-S): > 2000 nM
Max Inh (Compound 3: Mean of Max Inh) (NBL-S): 13%
IC50 (SK-N-SH): > 3000 nM
Max Inh (Compound 3: Mean of Max Inh) (SK-N-SH): 40%
IC50 (SIMA): > 2000 nM
Max Inh (Compound 3: Mean of Max Inh) (SIMA): 0%
IC50 (SK-N-FI): > 3000 nM
Max Inh (Compound 3: Mean of Max Inh) (SK-N-FI): 33%
IC50 (Kelly): 31 nM
Max Inh (Compound 3: Mean of Max Inh) (Kelly): 99%
IC50 (SK-N-DZ): > 2000 nM
Max Inh (Compound 3: Mean of Max Inh) (SK-N-DZ): 2.5%
IC50 (SK-N-AS): 260 nM
Max Inh (Compound 3: Mean of Max Inh) (SK-N-AS): 84%
IC50 (LAN-6): > 2000 nM
Max Inh (Compound 3: Mean of Max Inh) (LAN-6): 17.5%
growth inhibition (LAN-6; LAN-6 cells, each compound at 630 nM (FIG. 10, upper left panel)): 12%
IC50 (REC-1): 77 nM
Max Inh (REC-1): 99.0%
IC50 (JVM-2): > 2000 nM
Max Inh (JVM-2): 19.0%
IC50 (Z-138): 448 nM
Max Inh (Z-138): 96.0%
IC50 (Jeko): 23 nM
Max Inh (Jeko): 100.0%
IC50 (Mino): 8 nM
Max Inh (Mino): 100.0%
